The values that follow come from patent US20230391783A1, “COMPOUND CONTAINING 2,4-THIAZOLE RING, PREPARATION METHOD THEREFOR, AND APPLICATION THEREOF” (SHANDONG UNIVERSITY, priority 2021, published 2023).

For orientation: IC50 means the concentration that gives 50% inhibition. High values mean a need for much substance, low ones inhibition by little substance. The term AUC(0-t) denotes exposure summed from dosing to a finite time, without extrapolation to infinity. One may read the MRT as the average time that molecules of a dose stay in the body. As usually defined, the half-life is the time needed for the level to fall by half in the phase considered. Higher therefore signals slow loss. A word on the bioavailability: it is dose-corrected exposure relative to a reference, in per cent. In general, AUC(0-inf) refers to the area under the concentration-time curve extrapolated to infinity. Low values mean low exposure, high ones high exposure.

The structures appear in SMILES notation.

For data set [1], the system named is lymphocytes (fresh spleen cells). Put plainly: Lymphocyte proliferation assay (ConA-induced spleen cells). It counts as cell-based, rat. The protocol:
(§1) Lymphocytotoxicity test: rats were euthanized by spinal dislocation method, their spleens were aseptically removed and ground to make a single cell suspension. After removing red blood cells with 2 mL of red blood cell lysis buffer, the cell concentration was adjusted to 2×10^6 cells/mL using RPMI-1640 medium containing 10% fetal bovine serum (FBS). Next, 100 μL of the 2×10^6 cells/mL cell suspension and 100 μL of the appropriate concentration of the tested compound were added to each well of a 96-well plate, and the plate was incubated at 37° C. with 5% CO2 for 48 hours. At the end of the incubation period, 10 μL of CCK8 was added to each well, and the plate was returned to the incubator for 5-7 hours. The OD450 value was then measured at 450 nm using an enzyme-linked immunosorbent assay reader.
Lymphocyte proliferation assay: fresh spleen cells at a concentration of 2×10^6 cells/mL were incubated for 48 hours in an incubator maintained at 37° C. and 5% CO2 for 48 hours, and the culture medium was induced for cell proliferation with 5 μg/mL of ConA, and the appropriate concentration of the tested compound was added to test its inhibitory activity on lymphocyte proliferation. The test results of some compounds are shown in the table below and figures accompanying the application: […]

The subject of another data set is lymphocytes. Description: Lymphocytotoxicity test (CCK8, no stimulation factor). In kind it is cell-based, rat. As for the experimental part: as §1
In addition, the toxicity of the compounds on lymphocytes was also tested in this example. The testing method was as follows: the cell density was 3×10^6 cells/mL, and 100 μL of the cell suspension containing 3×10^5 cells/well was added to each well of a 96-well plate without any stimulation factor.

Data set [2] concerns LPS-induced inflammatory factors IL-6, IL-2, TNF-a and IFN-y in serum. Put plainly: Inhibition of LPS-induced cytokine storm in mice. In kind it is in vivo. As for the experimental part:
A total of 15 healthy male mice were randomly and equally divided into 3 groups, namely, control group, model group and drug administration group, with 5 mice in each group, labeled and their body weight recorded. Respectively administered: the control group and the model group were injected with normal saline via tail vein respectively, and the administration group was injected with the prepared in Examples 1-4 via tail vein respectively; the dose was 10 mg/kg (2 mg/mL; 50 μL/10 g). One hour later, LPS was injected intraperitoneally at 3 mg/kg (0.3 mg/mL, 100 μL/10 g). A second injection of the drug was given 5 hours later. Blood was collected from the mice 9 hours later, followed by euthanasia.
(§2) ELISA was performed to determine levels of IL-6, IL-2, TNF-a and IFN-y in serum.
Histopathological examination was performed on the administration group of compound IA-3: mouse lungs were fixed with 4% paraformaldehyde, and histopathological changes were observed by HE.

For data set [3], the system named is CD-3 antibody-induced inflammatory factors IL-6, IL-2, TNF-a and IFN-y in serum. Put plainly: Inhibition of CD-3 antibody-induced cytokine storm in mice. It counts as in vivo. The following applies: 10 mg/kg via tail vein, two injections, CD-3 antibody 100 μg/kg i.p., ELISA (FIG. 5). As for the experimental part:
A total of 15 healthy male mice were randomly and equally divided into 3 groups, namely, control group, model group and drug administration group, with 5 mice in each group, labeled and their body weight recorded. Respectively administered: the control group and the model group were injected with normal saline via tail vein respectively, and the administration group was injected with the compounds prepared in Examples 1-4 via tail vein respectively; the dose was 10 mg/kg (2 mg/mL; 50 μL/10 g). CD-3 antibody was injected intraperitoneally, 100 μg/kg, after 0.5 hours. A second injection of the drug was given 5 hours later. Blood was collected from the mice 9 hours later, followed by euthanasia.
as §2

The nature of data set [4]: Pharmacokinetics and oral bioavailability in Wistar rats. It counts as in vivo. The following applies: rat. The protocol: To prepare the standard series solution, a suitable amount of compound IA-3 was accurately weighed and placed in a 100 mL volumetric flask. The compound was dissolved in acetonitrile and diluted to the mark to produce a 25.0 μg/mL stock solution. The solution was mixed thoroughly by shaking and used for further analysis. An appropriate amount of the stock solution was taken separately, diluted with acetonitrile, and made up to the mark to prepare a series of standard solutions with concentrations of 5, 10, 25, 50, 100, 250, 500, and 1000 ng/mL. The solutions were stored in a refrigerator at 4° C. for later use.
Preparation of internal standard solution: a suitable amount of internal standard was accurately weighed and placed in a 100 mL volumetric flask. The internal standard was dissolved in acetonitrile and diluted to the mark to produce a 25 μg/mL stock solution. The solution was mixed thoroughly by shaking and used for further analysis. An accurately weighed amount of the stock solution was taken again and diluted with acetonitrile to prepare the internal standard reference solution at a concentration of 50 ng/mL. The solution was stored in a refrigerator at 4° C. for later use.
Preparation of plasma samples: 80 μL of rat plasma was taken, and 120 μL of internal standard was added. The mixture was vortexed for 2 min and centrifuged for 10 min. Then, 140 μL of the supernatant was collected and centrifuged for another 10 min. Finally, 10 μL of the supernatant was injected for analysis.
Standard Curve: 64 μL of blank rat plasma was mixed with 16 μL of the test compound standard series solution and 120 μL of acetonitrile solution containing the internal standard. The mixture was vortexed for 2 minutes and centrifuged for 10 minutes. Then, 140 μL of the supernatant was taken and centrifuged for another 10 minutes, 10 μL of the sample was injected and analyzed with HPLC-HR-MS. Instrumentation obtained the linear regression equation as the standard curve.
Sampling: eight healthy male Wistar rats were randomly divided into two groups (oral group and intravenous group), with four rats in each group. Rats were fasted for 12 h and provided with free access to water before the experiment. The oral group was administered with the test drug at a dose of 5 mg/kg, and the intravenous group was administered with 1 mg/kg. Blood samples of approximately 0.4 mL were collected from the rat orbital vein before and at 5 min, 15 min, 30 min, 1 h, 1.5 h, 2 h, 4 h, 6 h, 8 h, 10 h, and 12 h after administration, and immediately transferred to heparinized centrifuge tubes. Plasma was separated by centrifugation.
Sample determination and data processing: the rat plasma samples were processed according to the “Preparation of plasma samples” procedure and analyzed under the conditions described above. The non-compartmental model was applied to process the drug concentration data mentioned above, and the pharmacokinetic parameters were calculated using the DAD 2.0 software. The bioavailability was calculated according to the formula F=AUCig*Div/AUCiv*Dig*100%.

[5] abbreviates: male, Wistar, plasma, iv, single injection 1 mg/kg.
Setting [6] is: male, Wistar, plasma, single oral administration 5 mg/kg.
The mark [7] stands for this setting: single oral administration 5 mg/kg.

Compound `O=C(NCc1cccnc1)c1csc(-c2cnn3cccnc23)n1` [IA-3] gave an IC50 in data set [1] (Rattus norvegicus, inhibition of lymphocyte proliferation, 5 μg/mL ConA, 48 hours) of 0.0132 ± 0.00205 µM. Besides, the “Inhibition rate (%)” value in data set [1] (lymphocyte proliferation induced with 5 μg/mL ConA, 48 hours, test concentration not given) amounted to 97.09%. Also, the “inhibitory effect on lymphocyte proliferation (in words)” value in data set [1] (rat lymphocytes) is on record as “particularly significant inhibitory effect on lymphocytes”. The “safety index (in words)” value in the data set on lymphocytes was “high safety index”. In addition, the “toxicity on lymphocytes (in words)” value in the data set with lymphocytes (5, 2.5, 1.25 and 0.625 μM, no stimulation factor (FIG. 2)) is given as “less cytotoxicity”. The “reduction of LPS-induced IL-6, IL-2, TNF-a and IFN-y levels in serum” value in data set [2] (10 mg/kg via tail vein, two injections, LPS 3 mg/kg i.p., ELISA (FIG. 3)) is “most significant effect on the reduction of the above factors”. Besides, the “lung histopathology (H&E)” value in data set [2] (LPS model, 10 mg/kg via tail vein (FIG. 4)) is reported as “reduced the severity of lung pathology”. Also, the “reduction of CD-3 antibody-induced IL-6, IL-2, TNF-a and IFN-y levels in serum” value in data set [3] is “most significant effect on the reduction of the above factors”. In data set [4] (setting [5]), this compound showed an AUC(0-t) of 717 ng·h/mL, an MRT of 30.4 min, a clearance of 45.1 mL/min/kg and a half-life of 21.6 min. Besides, the Vd in data set [4] (male, Wistar, plasma, iv, single injection 1 mg/kg, read-out: Vss) was found to be 1.08 L/kg. Moreover, in data set [4] (male, Wistar, plasma, oral, intragastric 5 mg/kg vs intravenous 1 mg/kg, read-out: relative oral bioavailability), the bioavailability came to 22.1%. Besides, in data set [4] (setting [6]), the AUC(0-inf) amounted to 408 ng·h/mL, the AUC(0-t) is 408 ng·h/mL, the MRT is 76.2 min and the half-life was 125 min. In data set [4] (setting [7]), this compound returned a CL of 384 mL/min/kg and a Vss of 69.5 L/kg.
